Results reported in US5795887A, “Method of inducing cholecystokinin agonist activity using 1,4- Benzodiazepine compounds” (Glaxo Wellcome Inc., priority 1994, dated 1998).

Test system: isolated guinea pig gallbladder
Assay: Isolated guinea pig gallbladder assay (contraction, % CCK-induced maximal response)
Settings: Table 1; for % contraction at 1 µM / % contraction at 30 µM: Cavia porcellus; for % contraction at 1 µM: read-out: % Contraction (1 μM), expressed as % CCK-induced maximal response; for % contraction at 30 µM: read-out: % Contraction (30 μM), expressed as % CCK-induced maximal response
Procedure: 3. GUINEA PIG GALL BLADDER ASSAY
Gallbladders are removed from guinea pigs sacrificed by cervical dislocation. The isolated gallbladders are cleaned of adherent connective tissue and cut into two rings from each animal (2-6 mm in length). […] Tissues are connected via gold chains and stainless steel mounting wires to isometric force displacement transducers (Grass, Model FT03 D). Responses are then recorded on a polygraph (Grass, Model 7E).
Rings are gradually stretched (over a 120 min. period) to a basal resting tension of 1 gm which is maintained throughout the experiment. During the basal tension adjustment period, the rings are exposed to acetylcholine (10^-6 M) four times to verify tissue contractility. The tissues are then exposed to a submaximal dose of sulfated CCK-8 (Sigma, 3×10^-9 M). After obtaining a stable response, the tissues are washed out 3 times rapidly and every 5 to 10 minutes for 1 hour to reestablish a stable baseline.
As a final test, ACH (10 μM) is added to induce maximal contraction.

Compound | % contraction at 1 µM (1 μM) | % contraction at 30 µM (30 μM) | also measured
CC1=NC(NC(=O)Nc2cccc(C(=O)O)c2)C(=O)N(CC(=O)N(c2ccccc2)C(C)C)c2ccccc21 (stereo not shown) [Example 7, 3-{3-[1-(Isopropyl-phenyl-carbamoylmethyl)-5-methyl-2-oxo-2,3-dihydro-1H-benzo[e][1,4]diazepin-3-yl]-ureido}-benzoic acid] | 16% | 61% | –
CC(C)N(C(=O)CN1C(=O)C(NC(=O)Nc2cccc(C(=O)O)c2)N=C(c2ccccc2)c2ccccc21)c1ccccc1 (stereo not shown) [Example 5, 3-{3-[1-(Isopropyl-phenyl-carbamoylmethyl)-2-oxo-5-phenyl-2,3-dihydro-1H-benzo[e][1,4]diazepin-3-yl]-ureido}-benzoic acid] | – | 82% | –
CC(C)N(C(=O)CN1C(=O)[C@H](NC(=O)Nc2cccc(C(=O)O)c2)N=C(c2ccccc2)c2ccccc21)c1ccccc1 [Example 13, (R)-3-{3-[1-(Isopropyl-phenyl-carbamoylmethyl)-2-oxo-5-phenyl-2,3-dihydro-1H-benzo[e][1,4]diazepin-3-yl]-ureido}-benzoic acid] | – | 77% | –
COc1ccc(N(C(=O)CN2C(=O)C(NC(=O)Nc3cccc(C(=O)O)c3)N=C(c3ccccc3)c3ccccc32)C(C)C)cc1 (stereo not shown) [Example 8, 3-(3-{1-[Isopropyl-(4-methoxy-phenyl)-carbamoylmethyl]-2-oxo-5-phenyl-2,3-dihydro-1H-benzo[e][1,4]diazepin-3yl}-ureido)-benzoic acid] | 59% | 86% | –
CC(C)N(C(=O)CN1C(=O)C(NC(=O)c2ccc(Cl)cc2N)N=C(c2ccccc2)c2ccccc21)c1ccccc1 (stereo not shown) [Example 6, 2-Amino-4-chloro-N-[1-(isopropyl-phenyl-carbamoylmethyl)-5-phenyl-2-oxo-5-phenyl-2,3-dihydro-1H-benzo[e][1,4]diazepin-3-yl]-benzamide] | 41% | – | –
COc1ccc(N(C(=O)CN2C(=O)[C@H](Cc3c[nH]c4ccccc34)n3cnnc3-c3ccccc32)C(C)C)cc1 [Example 22, S-2-[4-(1H-Indol-3-ylmethyl)-5-oxo-6,5-dihydro-1,2,3a,6-tetraaza-benzo[e]azulene-6-yl}-N-isopyropyl-N-(4-methoxy-phenyl)acetamide] | 36% | – | –
COc1ccc(N(C(=O)CN2C(=O)C(CC(=O)Nc3cccc(C(=O)O)c3)N=C(c3ccccc3)c3ccccc32)C(C)C)cc1 (stereo not shown) [Example 10, 3-(2-{1-[Isopropyl-(4-methoxy-phenyl)-carbamoylmethyl]-2-oxo-5-phenyl-2,3-dihydro-1H-benzo[e][1,4]diazepin-3-yl}-acetyl-amino)-benzoic acid] | 54% | – | –
COc1ccc(N(C(=O)CN2C(=O)[C@@H](Cc3c[nH]c4ccccc34)NC(=O)c3ccccc32)C(C)C)cc1 [Example 20, (R)-2-[3-(1H-Indol-3-ylmethyl)-2,5-dioxo-2,3,4,5-tetrahydro-benzo[e][1,4]diazepin-1-yl]-N-isopropyl-N-(4-methyoxy-phenyl)-acetamide] | 31% | – | –
CC(C)N(C(=O)CN1C(=O)C(NC(=O)c2cc3ccccc3n2CC(=O)O)N=C(c2ccccc2)c2ccccc21)c1ccccc1 (stereo not shown) [Example 15, {2-[1-(Isopropyl-phenyl-carbamoylmethyl)-2-oxo-5-phenyl-2,3-dihydro-1H-benzo[e][1,4]diazepin-3-ylcarbamoyl]-indol-1-yl}-acetic acid] | – | 52% | –
CC(C)N(C(=O)CN1C(=O)C(NC(=O)Nc2cccc(C(=O)O)c2)N=C(c2ccccc2)c2ccccc21)c1ccc(N(C)C)cc1 (stereo not shown) [Example 9, 3-(3-{1-[(4-Dimethylamino-phenyl)-isopropyl-carbamoylmethyl]-2-oxo-5-phenyl-2,3-dihydro-1H-benzo[e][1,4]diazepin-3-yl}-ureido)-benzoic acid] | 73% | 62% | –
COc1ccc(N(C(=O)CN2C(=O)C(Cc3c[nH]c4ccccc34)N=C(c3ccccc3)c3ccccc32)C(C)C)cc1 (stereo not shown) [Example 17, 3-{1-[Isopropyl-(4-methoxy-phenyl)-carbamoylmethyl]-2-oxo-5-phenyl-2,3-dihydro-1H-benzo[e][1,4]diazepin-3-ylmethyl}-indolyl] | 24% | – | –
CC(C)N(C(=O)CN1C(=O)C(NC(=O)Nc2cccc(-c3nn[nH]n3)c2)N=C(c2ccccc2)c2ccccc21)c1ccccc1 (stereo not shown) [Example 1, 1N-Isopropyl-2-(2-oxo-5-phenyl-3-{3-[3-(1H-tetrazol-5-yl)-phenyl]-ureido}-2,3-dihydro-benzo[e][1,4]diazepin-1-yl)-N-phenyl-acetamide] | – | 63% | –
COc1ccc(N(C(=O)CN2C(=O)[C@@H](Cc3c[nH]c4ccccc34)n3cnnc3-c3ccccc32)C(C)C)cc1 [Example 23, (R)-2-[4-(1H-Indol-3-ylmethyl)-5-oxo-6,5-dihydro-1,2,3a,6-tetraaza-benzo[e]azulene6-yl}-N-isopropyl-N-(4-methoxy-phenyl)-acetamide] | 36% | – | –
COc1ccc(N(C(=O)CN2C(=O)[C@@H](Cc3c[nH]c4ccccc34)NC(=O)c3c(CC(=O)O)cccc32)C(C)C)cc1 [Example 24] | – | – | % Contraction (1 μM), expressed as % CCK-induced maximal response (1 μM): 93%; % Contraction (30 μM), expressed as % CCK-induced maximal response (30 μM): 79%
CC(C)N(C(=O)CN1C(=O)C(NC(=O)Nc2ccccc2)N=C(c2ccccc2)c2ccccc21)c1ccccc1 (stereo not shown) [Example 3] | – | 38% | –
COc1ccc(N(C(=O)CN2C(=O)C(CC(=O)Nc3ccccc3)N=C(c3ccccc3)c3ccccc32)C(C)C)cc1 (stereo not shown) [Example 11, 2-{1-[Isopropyl-(4-methoxy-phenyl)-carbamoylmethyl]-2-oxo-5-phenyl-2,3-dihydro-1H-benzo[e][1,4]diazepin-3-yl}N-phenyl-acetamide] | 56% | 43% | –
CC1=NC(NC(=O)Nc2ccccc2)C(=O)N(CC(=O)N(c2ccccc2)C(C)C)c2ccccc21 (stereo not shown) [Example 2, N-Isopropyl-2-[5-methyl-2-oxo-3-(3-phenyl-ureido)-2,3-dihydro-benzo[e][1,4]diazepin-1-yl]-N-phenyl-acetamide] | – | 88% | –
CC(C)N(C(=O)CN1C(=O)[C@@H](NC(=O)Nc2cccc(C(=O)O)c2)N=C(c2ccccc2)c2ccccc21)c1ccccc1 [Example 12, (S)-3-{3-[1-(Isopropyl-phenyl-carbamoylmethyl)-2-oxo-5-phenyl-2,3-dihydro-1H-benzo[e][1,4]diazepin-3-yl]-ureido}-benzoic acid] | – | 80% | –
CC(C)N(C(=O)CN1C(=O)C(NC(=O)Nc2ccccc2)[N+]([O-])=C(c2ccccc2)c2ccccc21)c1ccccc1 (stereo not shown) [Example 16, N-Isopropyl-2-[4-N-oxide-2-oxo-5-phenyl-3-(3-phenyl-ureido)-2,3-dihydro-benzo[e][1,4]diazepin-1-yl]-N-phenyl-acetamide] | – | 67% | –
COc1ccc(N(C(=O)CN2C(=O)[C@H](Cc3c[nH]c4ccccc34)NC(=O)c3ccccc32)C(C)C)cc1 [Example 21, (S)-2-[3-(1H-Indol-3-ylmethyl)-2,5-dioxo-2,3,4,5-tetrahydro-benzo[e][1,4]diazepin-1-yl]-N-isopropyl-N-(4-methyoxy-phenyl)-acetamide] | 54% | – | –
CC(C)N(C(=O)CN1C(=O)C(NC(=O)c2cc3ccccc3[nH]2)N=C(c2ccccc2)c2ccccc21)c1ccccc1 (stereo not shown) [Example 14, 1H-indolyl-2-carboxylic acid [1-(isopropyl-phenyl-carbamoylmethyl)-2-oxo-5-phenyl-2,3-dihydro-1H-benzo[e][1,4]diazepin-3-yl]-amide] | – | 13% | –
CC(C)N(C(=O)CN1C(=O)C(NC(=O)Nc2ccccc2)n2cnnc2-c2ccccc21)c1ccccc1 (stereo not shown) [Example 19, N-Isopropyl-N-phenyl-2-[5-oxo-4-(3-phenyl-ureido)-4,5-dihydro-1,2,3a,6-tetraaza-benzo[e]azulen-6-yl]-acetamide] | 83% | 58% | –
COc1ccc(N(C(=O)CN2C(=O)C(NC(=O)Nc3ccccc3)N=C(c3cccnc3)c3ccccc32)C(C)C)cc1 (stereo not shown) [Example 18, N-Isopropyl-N-(4-methoxy-phenyl)-2-[2-oxo-3-(3-phenyl-ureido)-5-pyridin-3-yl-2,3-dihydro-benzo[e][1,4]diazepin-1-yl]-acetamide] | 75% | – | –
CC1=NC(NC(=O)Nc2cccc3cn[nH]c23)C(=O)N(CC(=O)N(c2ccccc2)C(C)C)c2ccccc21 (stereo not shown) [Example 4] | 23% | 59% | –
